Species: Rattus norvegicus
Assay: DrugMatrix - Regimen: Daily Repeat
Format: toxicity, organism-based, Sprague-Dawley
Parameters: regimen Daily Repeat, gender Male, age 6-8 weeks
Conditions: in vivo, po, route oral GAVAGE, […]; for ABSOLUTE BASOPHIL / ABSOLUTE EOSINOPHIL / ABSOLUTE LYMPHOCYTE / ABSOLUTE MONOCYTE / ABSOLUTE SEGMENTED NEUTROPHIL / BASOPHIL / EOSINOPHIL / ERYTHROCYTE COUNT / HEMATOCRIT / HEMOGLOBIN / LEUKOCYTE COUNT / LYMPHOCYTE / MEAN CORPUSCULAR HEMOGLOBIN / MEAN CORPUSCULAR HEMOGLOBIN CONCENTRATION / MEAN CORPUSCULAR VOLUME / MONOCYTE / NEUTROPHIL / NUCLEATED RED BLOOD CELLS / PLATELET COUNT: tissue Blood; for ALANINE AMINOTRANSFERASE / ALBUMIN / ALKALINE PHOSPHATASE / ASPARTATE AMINOTRANSFERASE / BLOOD UREA NITROGEN / CARBON DIOXIDE / CHLORIDE / CHOLESTEROL / CREATINE PHOSPHOKINASE / CREATININE / GLUCOSE / LACTATE DEHYDROGENASE / LIPASE / PHOSPHORUS / POTASSIUM / SODIUM / TOTAL BILIRUBIN / TOTAL PROTEIN / URIC ACID: tissue Plasma
[1] = 0 mg/kg, 72 h, dose level Control, time 3 day
[2] = 0 mg/kg, 120 h, dose level Control, time 5 day
[3] = 0 mg/kg, dose level Control, time 28 day
[4] = 56 mg/kg, 72 h, dose level Low, time 3 day

NC[C@@H]1O[C@H](O[C@H]2[C@@H](O)[C@H](O[C@@H]3[C@@H](O)[C@H](N)C[C@H](N)[C@H]3O[C@H]3O[C@H](CN)[C@@H](O)[C@H](O)[C@H]3N)O[C@@H]2CO)[C@H](N)[C@@H](O)[C@@H]1O [FRAMYCETIN]
ABSOLUTE BASOPHIL [1]: 0 CELLS/uL | ABSOLUTE EOSINOPHIL [1]: 33 CELLS/uL | ABSOLUTE LYMPHOCYTE [1]: 9048.5 CELLS/uL | ABSOLUTE MONOCYTE [1]: 80.17 CELLS/uL | ABSOLUTE SEGMENTED NEUTROPHIL [1]: 1521.67 CELLS/uL | BASOPHIL [1]: 0% | EOSINOPHIL [1]: 0.17% | ERYTHROCYTE COUNT [1]: 5.46 x10E6/uL | HEMATOCRIT [1]: 32.87% | HEMOGLOBIN [1]: 12.95 G/DL | LEUKOCYTE COUNT [1]: 10.68 x10E3/uL | LYMPHOCYTE [1]: 86.67% | MEAN CORPUSCULAR HEMOGLOBIN [1]: 23.72 pg | MEAN CORPUSCULAR HEMOGLOBIN CONCENTRATION [1]: 39.4 G/DL | MEAN CORPUSCULAR VOLUME [1]: 60.18 fL | MONOCYTE [1]: 0.83% | NEUTROPHIL [1]: 12.33% | NUCLEATED RED BLOOD CELLS [1]: 0 /100WBC | PLATELET COUNT [1]: 1211.33 x10E3/uL | ALANINE AMINOTRANSFERASE [1]: 76.67 u/L | ALBUMIN [1]: 3.93 G/DL | ALKALINE PHOSPHATASE [1]: 317.17 u/L | ASPARTATE AMINOTRANSFERASE [1]: 81.17 u/L | BLOOD UREA NITROGEN [1]: 12.33 mg/dL | CARBON DIOXIDE [1]: 31.17 mmol/L | CHLORIDE [1]: 98.33 MEQ/L | CHOLESTEROL [1]: 67.17 mg/dL | CREATINE PHOSPHOKINASE [1]: 312.33 u/L | CREATININE [1]: 0.19 mg/dL | GLUCOSE [1]: 165.5 mg/dL | LACTATE DEHYDROGENASE [1]: 94.5 u/L | LIPASE [1]: 9.83 u/L | PHOSPHORUS [1]: 10.1 mg/dL | POTASSIUM [1]: 5.16 MEQ/L | SODIUM [1]: 143.02 MEQ/L | TOTAL BILIRUBIN [1]: 0.2 mg/dL | TOTAL PROTEIN [1]: 5.88 G/DL | URIC ACID [1]: 0.68 mg/dL | ABSOLUTE BASOPHIL [2]: 0 CELLS/uL | ABSOLUTE EOSINOPHIL [2]: 14.67 CELLS/uL | ABSOLUTE LYMPHOCYTE [2]: 9629.83 CELLS/uL | ABSOLUTE MONOCYTE [2]: 72.5 CELLS/uL | ABSOLUTE SEGMENTED NEUTROPHIL [2]: 1049.67 CELLS/uL | NUCLEATED RED BLOOD CELLS [2]: 0.17 /100WBC | CARBON DIOXIDE [2]: 26.4 mmol/L | LACTATE DEHYDROGENASE [2]: 83.5 u/L | LIPASE [2]: 85.83 u/L | URIC ACID [2]: 0.8 mg/dL | BASOPHIL [3]: 0.42% | EOSINOPHIL [3]: 0.58% | ERYTHROCYTE COUNT [3]: 8.06 x10E6/uL | HEMATOCRIT [3]: 48.44% | HEMOGLOBIN [3]: 16.34 G/DL | LEUKOCYTE COUNT [3]: 13.04 x10E3/uL | LYMPHOCYTE [3]: 85.12% | MEAN CORPUSCULAR HEMOGLOBIN [3]: 20.26 pg | MEAN CORPUSCULAR HEMOGLOBIN CONCENTRATION [3]: 33.74 G/DL | MEAN CORPUSCULAR VOLUME [3]: 60.1 fL | MONOCYTE [3]: 1.44% | NEUTROPHIL [3]: 11.28% | PLATELET COUNT [3]: 1226 x10E3/uL | ALANINE AMINOTRANSFERASE [3]: 28.6 u/L | ALBUMIN [3]: 3.94 G/DL | ALKALINE PHOSPHATASE [3]: 254.6 u/L | ASPARTATE AMINOTRANSFERASE [3]: 67.8 u/L | BLOOD UREA NITROGEN [3]: 10.4 mg/dL | CHLORIDE [3]: 104.6 MEQ/L | CHOLESTEROL [3]: 57.6 mg/dL | CREATINE PHOSPHOKINASE [3]: 224.8 u/L | CREATININE [3]: 0.4 mg/dL | GLUCOSE [3]: 140.6 mg/dL | PHOSPHORUS [3]: 10.66 mg/dL | POTASSIUM [3]: 6.58 MEQ/L | SODIUM [3]: 148.6 MEQ/L | TOTAL BILIRUBIN [3]: 0.24 mg/dL | TOTAL PROTEIN [3]: 6.64 G/DL | ABSOLUTE BASOPHIL [4]: 0 CELLS/uL | ABSOLUTE EOSINOPHIL [4]: 0 CELLS/uL | ABSOLUTE LYMPHOCYTE [4]: 8427.33 CELLS/uL | ABSOLUTE MONOCYTE [4]: 92.67 CELLS/uL | ABSOLUTE SEGMENTED NEUTROPHIL [4]: 980 CELLS/uL | BASOPHIL [4]: 0% | EOSINOPHIL [4]: 0% | ERYTHROCYTE COUNT [4]: 5.46 x10E6/uL | HEMATOCRIT [4]: 33.8% | HEMOGLOBIN [4]: 13.4 G/DL | LEUKOCYTE COUNT [4]: 9.5 x10E3/uL | LYMPHOCYTE [4]: 88.67% | MEAN CORPUSCULAR HEMOGLOBIN [4]: 24.57 pg | MEAN CORPUSCULAR HEMOGLOBIN CONCENTRATION [4]: 39.63 G/DL | MEAN CORPUSCULAR VOLUME [4]: 61.9 fL | MONOCYTE [4]: 1% | NEUTROPHIL [4]: 10.33% | NUCLEATED RED BLOOD CELLS [4]: 0 /100WBC | PLATELET COUNT [4]: 1108.33 x10E3/uL | ALANINE AMINOTRANSFERASE [4]: 81 u/L | ALBUMIN [4]: 4.1 G/DL | ALKALINE PHOSPHATASE [4]: 367.33 u/L | ASPARTATE AMINOTRANSFERASE [4]: 87 u/L | BLOOD UREA NITROGEN [4]: 11.67 mg/dL | CARBON DIOXIDE [4]: 33.33 mmol/L | CHLORIDE [4]: 97 MEQ/L | CHOLESTEROL [4]: 89.67 mg/dL | CREATINE PHOSPHOKINASE [4]: 277.67 u/L

From ChEMBL document CHEMBL3885881, “DrugMatrix”
